Data as given in patent US12070445B2, “System and assay for monitoring production/release of membrane-lytic toxins in bacteria and compounds for modulating same” (priority 2021, dated 2024).
Entries after “also recorded” stand apart in the source; their conditions may differ.

System: WT S. aureus (RN6390b)
Assay: Microtiter plate (96-well) vesicle lysis assay with WT S. aureus
Format: cell-based
Conditions: 100 nM 1, 10 μM 5, 20 μM 6, 10 μM AIP
Protocol: Compound handling and preparation. OdDHL and BHL (Hodgkinson et al., 2011), S. aureus AIP and peptide derivatives 1-5 (Tal-Gan et al., 2013, Tal-Gan et al., 2016, Vasquez and Blackwell, 2019), and compounds 7-9 (Welsh and Blackwell, 2016a, Boursier et al., 2018, Manson et al., 2020) were synthesized using previously described methods. PQS and compound 6 were purchased from Millipore Sigma and AK Scientific respectively. Compounds were stored dry at −20° C. until needed and then dissolved in DMSO. DMSO stock solutions were prepared at concentrations that varied with compound potency and apparent solubility. Final in-well compound concentrations for 96-well vesicle lysis assays, unless noted otherwise, were: 10 μM for AIP, OdDHL, and PQS; 1 mM for BHL; 100 nM for 1-4; 10 μM for 5; 20 μM for 6; 100 μM for 7 and 8; and 200 μM for 9.
Production of phospholipid vesicles with encapsulated calcein. Large unilamellar vesicles (LUVs) were produced by adapting a freeze-thaw and vesicle extrusion procedure (Mayer et al., 1986). Briefly, stock solutions of phospholipids (DOPC, DPPC, DPPE, or cholesterol) in chloroform were mixed to the desired lipid compositions (70 mol % DOPC/30 mol % cholesterol for S. aureus vesicles or 68 mol % DPPC, 30 mol % cholesterol, 2 mol % DPPE for P. aeruginosa vesicles), and the chloroform was removed using an N2 stream or rotary evaporation followed by drying for at least one hour under vacuum. Self-quenching solutions of calcein were prepared by combining calcein and PBS or a specially prepared calcein buffer (1 mM EDTA, 10 mM Trisbase, and 100 mM NaCl; pH 8) to a calcein concentration of […]. The resulting solutions were titrated with 10 M aqueous NaOH until all calcein was dissolved and the solution reached pH 7.4 or pH 8 for PBS and the calcein buffer, respectively. The resulting calcein solutions were added to the dried phospholipid films (PBS for S. aureus formulations and the calcein buffer for the P. aeruginosa formulations) for a final lipid concentration of 5 mg/mL. The resulting lipid solutions were vortexed vigorously and briefly sonicated in a bath sonicator to form a turbid vesicle suspension. The vesicle suspensions were then freeze-thawed five times by alternately immersing them into an iPrOH/dry ice bath and a warm water bath (˜60° C.). Vesicles prepared for continuous time-course experiments were passed at least 5 times through a 100 nm polycarbonate filter using a Mini-prep extruder. Vesicles prepared for the high-throughput screen were passed through the filter 3 times. The resulting vesicles were then separated from external, unloaded calcein using a hand-packed Sephadex-G50 size exclusion chromatography column. The concentration of phospholipid in the solution was quantified using ^31P NMR (per the above protocol), and the phospholipid concentration was adjusted to 2 mM for unsaturated lipid solutions and 1 mM for saturated lipid solutions in their respective buffers. The resulting vesicles were characterized by dynamic light scattering and found to have a hydrodynamic diameter of ˜150 nm (FIGS. 3A-3C), which agrees with previous reports describing vesicle production using a similar method (Lapinski et al., 2007).
Microtiter plate vesicle lysis assays. Portions of media (2 or 10 mL) were inoculated with individual bacterial colonies and allowed to shake overnight. From these overnight cultures, subcultures were prepared by diluting the cultures 1:50 (v/v) in fresh BHI for S. aureus or 1:100 (v/v) in fresh LB for P. aeruginosa. An aliquot of each subculture (178 μL) was added to 20 μL of vesicle suspension and 2 μL of compound solution (dissolved in DMSO at 100× working concentration) in a clear-bottomed, black 96-well microtiter plate (Corning 3904). For controls, DMSO (vehicle) or Triton X-100 (1% final concentration) was substituted for compound. […]

Which “effect on vesicle lysis (calcein fluorescence over 12 hr)” value does the source give for `CC(C)c1ccc(S(=O)(=O)c2nnn3c2nc(O)c2ccccc23)cc1` [Compound 6, savirin] here?
The value was “wholly abrogated vesicle lysis; also recorded: repress vesicle lysis”.
